In US11566007B2, “Ras inhibitors” (Revolution Medicines, Inc., priority 2019, dated 2023):

Columns and labels:
K-Ras G12C = K-Ras G12C (Homo sapiens (Human), UniProt P01116+P62937, G12C); test: Ras-Raf (BRAF RBD) disruption / FRET / MOA assay, KRAS G12C; assay type: biochemical; settings: KRAS G12C; Ras-Raf disruption/FRET/MOA assay; read-out: IC50* KRAS G12C FRET data
Outline: (§1)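 Ras:RAF disruption was scored as a fall in TR-FRET ratio relative to DMSO. Compound ranged in 3-fold steps over 10 points from 30 μM final; incubation ran 3 h at 25° C, detection antibodies a further 1.5 h. Reported as IC50.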

KRAS G12D = KRAS G12D (Homo sapiens (Human), UniProt P01116+P62937, G12D); test: Ras-Raf (BRAF RBD) disruption / FRET / MOA assay, KRAS G12D; assay type: biochemical; settings: Ras-Raf disruption/FRET/MOA assay; class symbols; read-out: KRAS G12D FRET data IC50
Outline: as §1

KRAS Q61H = KRAS Q61H (Homo sapiens (Human), UniProt P01116+P62937, Q61H); test: Ras-Raf (BRAF RBD) disruption / FRET / MOA assay, KRAS Q61H; assay type: biochemical; settings: Ras-Raf disruption/FRET/MOA assay; class symbols; read-out: KRAS Q61H FRET data IC50
Outline: (§2)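 TR-FRET disruption of nucleotide-loaded Ras binding to BRAF RBD via compound-driven ternary complex with cyclophilin A. Compound as 10-point 3-fold series from 30 μM final, 3 h at 25° C, then anti-His Eu-W1024 (10 nM) and anti-GST allophycocyanin (50 nM) for 1.5 h. IC50 from decreased FRET ratio versus DMSO.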

K-Ras G13C = K-Ras G13C (Homo sapiens (Human), UniProt P01116+P62937, G13C); test: Ras-Raf (BRAF RBD) disruption / FRET / MOA assay, KRAS G13C; assay type: biochemical; settings: KRAS G13C; Ras-Raf disruption/FRET/MOA assay; read-out: IC50* KRAS G13C FRET data
Outline: as §1

KRAS WT = KRAS WT (Homo sapiens (Human), UniProt P01116+P62937); test: Ras-Raf (BRAF RBD) disruption / FRET / MOA assay, KRAS WT; assay type: biochemical; settings: read-out: IC50* KRAS WT FRET data
Outline: as §1

NRAS WT = NRAS WT (Homo sapiens (Human), UniProt P01111+P62937); test: Ras-Raf (BRAF RBD) disruption / FRET / MOA assay, NRAS WT; assay type: biochemical; settings: read-out: IC50* NRAS WT FRET data
Outline: as §2

NRAS Q61K = NRAS Q61K (Homo sapiens (Human), UniProt P01111+P62937, Q61K); test: Ras-Raf (BRAF RBD) disruption / FRET / MOA assay, NRAS Q61K; assay type: biochemical; settings: NRAS Q61K; Ras-Raf disruption/FRET/MOA assay; read-out: IC50* NRAS Q61K FRET data
Outline: as §2

NRAS Q61R = NRAS Q61R (Homo sapiens (Human), UniProt P01111+P62937, Q61R); test: Ras-Raf (BRAF RBD) disruption / FRET / MOA assay, NRAS Q61R; assay type: biochemical; settings: NRAS Q61R; Ras-Raf disruption/FRET/MOA assay; read-out: IC50* NRAS Q61R FRET data
Outline: as §2

KRAS G13D = KRAS G13D (Homo sapiens (Human), UniProt P01116+P62937, G13D); test: Ras-Raf (BRAF RBD) disruption / FRET / MOA assay, KRAS G13D; assay type: biochemical; settings: read-out: IC50* KRAS G13D FRET data
Outline: as §1

NRAS G12C = NRAS G12C (Homo sapiens (Human), UniProt P01111+P62937, G12C); test: Ras-Raf (BRAF RBD) disruption / FRET / MOA assay, NRAS G12C; assay type: biochemical; settings: read-out: IC50* NRAS G12C FRET data
Outline: as §1

NCI-H358 (K-Ras G12C) = test: CellTiter-Glo cell viability assay, NCI-H358; assay type: cell-based, human; settings: Homo sapiens, NCI-H358, 120 h, NCI-H358, 5-day treatment; class symbols; read-out: Additional H358 Cell Viability assay data (K-Ras G12C, IC50)
Outline: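 Luminescent viability readout on day 5 after direct compound addition to plated cells; plates sat ~30 min at room temperature before reading. Values expressed as percent of mean DMSO signal, curves fit with a four-parameter logistic model.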

KRAS G12S = KRAS G12S (Homo sapiens (Human), UniProt P01116+P62937, G12S); test: Ras-Raf (BRAF RBD) disruption / FRET / MOA assay, KRAS G12S; assay type: biochemical; settings: Ras-Raf disruption/FRET/MOA assay; class symbols; read-out: KRAS G12S FRET data IC50
Outline: as §1

Measured: IC50

Sequence of NRAS WT (P01111 whole entry): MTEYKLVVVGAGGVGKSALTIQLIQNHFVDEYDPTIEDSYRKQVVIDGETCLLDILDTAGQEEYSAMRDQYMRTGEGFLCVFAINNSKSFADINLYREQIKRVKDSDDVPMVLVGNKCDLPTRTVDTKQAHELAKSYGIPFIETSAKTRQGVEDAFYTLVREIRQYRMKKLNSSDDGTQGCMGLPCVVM
Sequence of NRAS WT (P62937 whole entry): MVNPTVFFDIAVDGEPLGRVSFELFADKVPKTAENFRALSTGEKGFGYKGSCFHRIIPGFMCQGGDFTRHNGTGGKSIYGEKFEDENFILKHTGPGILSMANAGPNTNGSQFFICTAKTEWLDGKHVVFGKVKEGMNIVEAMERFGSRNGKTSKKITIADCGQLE
Sequence of K-Ras G13C (P01116-2 other isoform, or with tags, fused parts or gaps G13C): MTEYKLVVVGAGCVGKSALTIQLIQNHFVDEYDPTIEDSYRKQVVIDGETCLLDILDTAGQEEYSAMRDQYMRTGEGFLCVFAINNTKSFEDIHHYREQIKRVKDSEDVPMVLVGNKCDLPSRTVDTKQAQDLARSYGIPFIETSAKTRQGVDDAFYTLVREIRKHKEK
Sequence of K-Ras G13C (P62937 whole entry): as the sequence (P62937 whole entry) above
Sequence of NRAS Q61R (P01111 whole entry Q61R): as the sequence (P01111 whole entry) above, with Q61R counted along it
Sequence of NRAS Q61R (P62937 whole entry): as the sequence (P62937 whole entry) above
Sequence of NRAS Q61K (P01111 whole entry Q61K): as the sequence (P01111 whole entry) above, with Q61K counted along it
Sequence of NRAS Q61K (P62937 whole entry): as the sequence (P62937 whole entry) above
Sequence of KRAS WT (P01116-2 other isoform, or with tags, fused parts or gaps): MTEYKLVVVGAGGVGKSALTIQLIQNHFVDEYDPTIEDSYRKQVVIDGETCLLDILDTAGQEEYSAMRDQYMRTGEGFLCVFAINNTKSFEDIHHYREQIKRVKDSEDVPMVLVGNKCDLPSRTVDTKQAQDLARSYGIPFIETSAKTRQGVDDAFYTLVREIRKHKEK
Sequence of KRAS WT (P62937 whole entry): as the sequence (P62937 whole entry) above
Sequence of KRAS G12S (P01116-2 other isoform, or with tags, fused parts or gaps G12S): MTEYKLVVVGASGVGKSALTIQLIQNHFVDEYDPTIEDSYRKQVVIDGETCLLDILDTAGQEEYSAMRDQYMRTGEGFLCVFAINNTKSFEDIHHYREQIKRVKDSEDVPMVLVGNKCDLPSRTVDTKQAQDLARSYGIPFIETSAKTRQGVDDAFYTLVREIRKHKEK
Sequence of KRAS G12S (P62937 whole entry): as the sequence (P62937 whole entry) above
Sequence of NRAS G12C (P01111 whole entry G12C): as the sequence (P01111 whole entry) above, with G12C counted along it
Sequence of NRAS G12C (P62937 whole entry): as the sequence (P62937 whole entry) above
Sequence of K-Ras G12C (P01116-2 other isoform, or with tags, fused parts or gaps G12C): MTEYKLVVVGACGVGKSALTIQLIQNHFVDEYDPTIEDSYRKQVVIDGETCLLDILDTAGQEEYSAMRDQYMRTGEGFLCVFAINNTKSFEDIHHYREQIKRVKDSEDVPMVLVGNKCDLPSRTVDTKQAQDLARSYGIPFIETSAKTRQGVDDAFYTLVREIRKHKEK
Sequence of K-Ras G12C (P62937 whole entry): as the sequence (P62937 whole entry) above
Sequence of KRAS Q61H (P01116-2 other isoform, or with tags, fused parts or gaps Q61H): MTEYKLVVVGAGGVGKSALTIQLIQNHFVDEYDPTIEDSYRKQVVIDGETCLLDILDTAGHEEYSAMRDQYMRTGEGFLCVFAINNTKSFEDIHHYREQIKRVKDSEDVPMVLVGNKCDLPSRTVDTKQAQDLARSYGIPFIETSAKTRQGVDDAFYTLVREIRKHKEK
Sequence of KRAS Q61H (P62937 whole entry): as the sequence (P62937 whole entry) above
Sequence of KRAS G13D (P01116-2 other isoform, or with tags, fused parts or gaps G13D): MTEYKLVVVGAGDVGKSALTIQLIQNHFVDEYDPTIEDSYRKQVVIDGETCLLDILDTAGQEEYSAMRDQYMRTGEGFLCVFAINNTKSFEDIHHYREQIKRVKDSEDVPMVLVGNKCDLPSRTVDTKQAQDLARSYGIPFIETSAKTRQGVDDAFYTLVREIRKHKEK
Sequence of KRAS G13D (P62937 whole entry): as the sequence (P62937 whole entry) above
Sequence of KRAS G12D (P01116-2 other isoform, or with tags, fused parts or gaps G12D): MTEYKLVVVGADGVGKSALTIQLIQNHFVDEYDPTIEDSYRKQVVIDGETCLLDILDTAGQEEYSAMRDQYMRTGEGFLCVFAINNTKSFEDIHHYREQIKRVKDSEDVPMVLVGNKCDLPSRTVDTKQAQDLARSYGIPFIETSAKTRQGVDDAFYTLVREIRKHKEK
Sequence of KRAS G12D (P62937 whole entry): as the sequence (P62937 whole entry) above

C=CC(=O)N1CC[C@H](C(=O)N2CCCCC[C@H]2C(=O)N[C@H]2Cc3nc(cs3)-c3ccc4c(c3)c(c(-c3cccnc3[C@H](C)OC)n4CC)CC(C)(C)COC(=O)[C@@H]3CCCN(N3)C2=O)C1 (atropisomer, axis not shown) [Example A495]
> 10 µM: KRAS G12D | KRAS G13D
0.1 to 1 µM: K-Ras G12C | NRAS G12C
0.01 to 0.1 µM: NCI-H358 (K-Ras G12C)
1 to 10 µM: all other assays above

C=CC(=O)N(C)CCN1CCN(C(=O)N(C)[C@H](C(=O)N[C@H]2Cc3cccc(c3)-c3ccc4c(c3)c(c(-c3cccnc3[C@H](C)OC)n4CC)CC(C)(C)COC(=O)[C@@H]3CCCN(N3)C2=O)C(C)C)CC1 (atropisomer, axis not shown) [Example A539]
0.01 to 0.1 µM: K-Ras G13C
1 to 10 µM: KRAS G12D | KRAS G13D
0.1 to 1 µM: all other assays above

C=CC(=O)N1CCOC2(CCN(C(=O)N(C)[C@H](C(=O)N[C@H]3Cc4cc(C(F)F)cc(n4)-c4ccc5c(c4)c(c(-c4cccnc4[C@H](C)OC)n5CC(F)(F)F)CC(C)(C)COC(=O)[C@@H]4CCCN(N4)C3=O)C(C)C)CC2)C1 (atropisomer, axis not shown) [Example A541]
0.01 to 0.1 µM: K-Ras G13C | NCI-H358 (K-Ras G12C)
1 to 10 µM: KRAS G12D | KRAS G13D
0.1 to 1 µM: all other assays above

C=CC(=O)N1CCC[C@]12CCN(C(=O)N(C)[C@H](C(=O)N[C@H]1Cc3nc(cs3)-c3ccc4c(c3)c(c(-c3cccnc3[C@H](C)OC)n4CC)CC(C)(C)COC(=O)[C@@H]3CCCN(N3)C1=O)C(C)C)C2 (atropisomer, axis not shown) [Example A548]
1 to 10 µM: KRAS G12D | K-Ras G13C | KRAS G13D
0.1 to 1 µM: all other assays above

C=CC(=O)N(C)CCN1CCN(C(=O)N(C)[C@H](C(=O)N[C@H]2Cc3cccc(c3)-c3ccc4c(c3)c(c(-c3cccnc3[C@H](C)OC)n4CC)CC(C)(C)COC(=O)[C@@H]3CCCN(N3)C2=O)C(C)C)C[C@H]1C (atropisomer, axis not shown) [Example A553]
0.01 to 0.1 µM: K-Ras G13C
0.1 to 1 µM: K-Ras G12C | KRAS Q61H | KRAS WT | NRAS G12C | NCI-H358 (K-Ras G12C)
1 to 10 µM: all other assays above

C=CC(=O)N1CCC2(CCN(C(=O)N(C)[C@H](C(=O)N[C@H]3Cc4cccc(c4)-c4ccc5c(c4)c(c(-c4cccnc4[C@H](C)OC)n5CC)CC(C)(C)COC(=O)[C@@H]4CCCN(N4)C3=O)C(C)C)CC2)C1 (atropisomer, axis not shown) [Example A554]
0.01 to 0.1 µM: K-Ras G13C
1 to 10 µM: KRAS G12D | KRAS G13D
0.1 to 1 µM: all other assays above

C=CC(=O)N1CC[C@]2(C1)OCN([C@H](C(=O)N[C@H]1Cc3cc(cc(C(F)F)c3)-c3ccc4c(c3)c(c(-c3cccnc3[C@H](C)OC)n4CC)CC(C)(C)COC(=O)[C@@H]3CCCN(N3)C1=O)C(C)C)C2=O (atropisomer, axis not shown) [Example A557]
0.01 to 0.1 µM: KRAS Q61H
1 to 10 µM: KRAS G12D | NRAS Q61K | NRAS Q61R | KRAS G13D
0.1 to 1 µM: all other assays above
